Assay results: article PMC3115942 (PLoS ONE, 2011)

System: SUIT-2 cells
Experiment: Soft agar colony formation assay, SUIT-2
Type: cell-based, human
Settings: 14 days
Experimental: 2000 PANC-1 or SUIT-2 cells were suspended in 1.5 mL growth media containing 0.35% agar (Oxoid), over a 1.5 mL base layer containing 0.5% agar in 6-well plates. The plates were incubated for 14 days (SUIT-2) and 21 days (PANC-1) and then stained for 1 h with 1 ml of 0.02% crystal violet (Sigma-Aldrich), and colonies were counted according to sizes; <0.2 mm (small), 0.2–1 mm (medium) and >1 mm (large). Data represent average numbers with standard deviation bars (n = 3). The experiments have been repeated with similar result.

## Cc1cccn2cc(-c3ccc(NC(=O)c4ccccc4Br)cc3)nc12 [MS-0022, 2-bromo-N-(4-(8-methylimidazo[1,2-a]pyridin-2-yl)phenyl)benzamide]
  soft agar colony formation, SUIT-2: reduction in large (Figure 2C–D, and G) and medium sized colonies
